# Data published in publication PMC4736406 (Stem Cells International, 2016).
# Where a name gives a salt, the structure may show the parent alone.
# Assays:
# HepG2 cells = assay: Image based high content analysis (HCA), fixed and live assays, in HepG2
# Protocol: Briefly, the cells were grown in DMEM supplemented with 10% heat inactivated FBS, 1% penicillin-streptomycin (PEST), 1% sodium pyruvate, and 1% nonessential amino acids. Cells were passaged at 1 : 8 or 1 : 6 every 3-4 days when they reach 75–80% confluence. Seeding density was optimized for HCA application to ensure that the cells were in a monolayer (5000 cells per well in 96-well plates) for precise imaging. The cells were grown for 48 h to attach and stabilize. The experiments performed with HepG2 cells were designed to ensure that each assay was performed with cells in a similar growth phase.
# Each concentration was assayed in triplicate wells. […] The experimental process is illustrated in Figure 2.
# And finally, TOTO-3 was used for assessing PMP.
# The cells were imaged using an Olympus ScanR system.
# All other fluorescence signals were considered as subobjects.
# [1] = test system: hiPSC derived hepatocytes (hiPS-HEP);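 note: hiPS-HEP obtained from ChiPSC4 through definitive endoderm under serum- and feeder-free conditions in 96-well plates, fluorescence imaging, each concentration run in triplicate wells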
# From the text: (§1) For hepatic differentiation, a serum- and feeder-free procedure recapitulating liver development was applied. First, ChiPSC4 was guided to differentiate into definitive endoderm using the Cellartis DE Diff Kit (Takara Bio Europe AB; Y30030), containing complete media and coating solution for differentiation of hPSC to DE cells in 2D culture. On day 7 of differentiation, the DE cells were enzymatically dissociated and reseeded into fibronectin coated 96-well plates. […] Wells of 96-well plates were coated by adding fibronectin solution 0.15 mL per cm^2 to the wells and let to incubate for >60 min at RT. […] Next, the cell suspension was centrifuged for 5 min at 300 g at RT, the supernatant was removed, and the cell pellet was resuspended in warm Hepatocyte Thawing and Seeding medium (Cellartis Hepatocyte Diff Kit; Takara Bio Europe AB; Y30050). Prior to seeding of cells, excess coating was removed and 150 K DE cells/cm^2 were seeded in the 96-well plates. On days 9 and 11 (counted from the start of ChiPSC4 differentiation), medium was changed using Hepatocyte Progenitor Medium (Cellartis Hepatocyte Diff Kit).
# (§2) The cells were treated for 48 h with compounds at varying concentrations (half log dilution from the top concentration). […] The stock solutions were prepared in DMSO or water and were diluted in culture medium to obtain the final concentration. Each concentration was assayed in triplicate wells. Vehicle control wells were included and the final DMSO concentration in the medium never exceeded 0.5% (v/v). Each batch had two plates each for fixed and live assays.
# (§3) LipidTOX Green neutral lipids and LipidTox Red phospholipidosis were used for identifying neutral lipid and phospholipid formation within the cells. MMP changes (Δψm) within the cell were measured using MitoTracker orange. Carboxy-H2DCFDA (6-carboxy-2′,7′-dichlorodihydrofluorescein diacetate) an acetylated fluorescent was used for measuring ROS. And finally, TOTO-3 was used for assessing PMP.
# (§4) The fluorescence probes were grouped into two sets according to their optical compatibility and requirement of fixed or live material. […] The fluorescent probes for neutral lipids and phospholipids required the cells to be fixed and were assigned to the fixed assay. The probes MitoTracker orange, carboxy-H2DCFDA, and TOTO-3 were assigned to the live assay.
# (§5) Following compound incubation, probes were administered to the cultures of the live assay. […] After incubation for 45 min at optimal cell culture conditions, the cells were changed to phenol red (PR) free medium for live cell imaging. For fixed assay, LipidTox Red probe was added with the compounds, and after 48 h the cells were fixed in 4% PFA supplemented with 1X Hoechst stain for 30 min at room temperature. Subsequently, cells were washed with PBS^+/+ and 1X LipidTOX Green stain diluted in PBS^+/+ was incubated with the cells for 30 min at room temperature. The plates were imaged without removing the buffer with probe.
# (§6) The cells were imaged using an Olympus ScanR system. Prior to image acquisition, the heating system and CO2 gas flow were started to ensure optimal conditions in the ScanR chamber for live cell analysis. The incubator was set to 37°C with 5% CO2 and relative humidity of 90%. […] 20X long distance objective with NA 0.45 was used to image distinct fluorescence channels. In order to cover the entire well and also to capture maximum cell events sixteen fields per well (4 × 4 tile grid spread equally) were imaged. The channel exposure time for LipidTOX Green, LipidTOX Red, MitoTracker orange, and carboxy-H2DCFHDA were set based on the fluorescence of the negative control wells and were set constant within each plate. Exposure time for Hoechst and TOTO-3 was set in the range of 1–10 ms depending on cellular fluorescence intensity.
# (§7) The acquired images were analyzed using ScanR analysis program from Olympus.
# [2] = plasma; no reference given; read-out: C max (maximum plasma concentration of the drug); cited from earlier work
# [3] = test system: hiPSC derived hepatocytes (hiPS-HEP); assay: Image based high content analysis (HCA), fixed and live assays, in hiPSC derived hepatocytes;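 note: hiPS-HEP obtained from ChiPSC4 through definitive endoderm under serum- and feeder-free conditions in 96-well plates, fluorescence imaging, each concentration run in triplicate wells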
# From the text: as §1, §2, §3, §4, §5, §6, §7
# [4] = HepG2, fixed assay, 48 h, p<0.05 vs control
# [5] = HepG2, fixed, at 100 µM (Amiodarone HCL at […])
# [6] = HepG2, live assay, 48 h, p<0.05 vs control
# [7] = HepG2, live, at 100 µM (Amiodarone HCL at […])
smiles,measurement,setting,value
"CCCCc1oc2ccccc2c1C(=O)c1cc(I)c(OCCN(CC)CC)c(I)c1 [Amiodarone, amiodarone hydrochloride]",Detection of phospholipid accumulation / phospholipidosis,HepG2 cells; HepG2,false negative prediction
same,Category based on degree of injury,"HepG2 cells; HepG2, […] for amiodarone, 100 μM for the others",severely
same,"Severity (sum of individual scores, degree of injury)","HepG2 cells; HepG2, at 100 µM (Amiodarone HCL at […])",20
same,IC50/EC50 Nucleus Area,"HepG2 cells; HepG2, fixed assay, 48 h",39.5 µM
same,IC50/EC50 Nucleus Cell count,"HepG2 cells; HepG2, fixed assay, 48 h",7.6 µM
same,IC50/EC50 Nucleus MI,"HepG2 cells; HepG2, fixed assay, 48 h",140 µM
same,IC50/EC50 Phospholipidosis Area,"HepG2 cells; HepG2, fixed assay, 48 h",7.3 µM
same,IC50/EC50 Phospholipidosis Count,"HepG2 cells; HepG2, fixed assay, 48 h",8.9 µM
same,IC50/EC50 Phospholipidosis MI,"HepG2 cells; HepG2, fixed assay, 48 h",35.6 µM
same,IC50/EC50 Steatosis Area,"HepG2 cells; HepG2, fixed assay, 48 h",30.6 µM
same,IC50/EC50 Steatosis Count,"HepG2 cells; HepG2, fixed assay, 48 h",19.5 µM
same,IC50/EC50 Steatosis MI,"HepG2 cells; HepG2, fixed assay, 48 h",23.6 µM
same,"MEC, steatosis area (S, A)",HepG2 cells; [4],125 µM
same,"MEC, steatosis mean intensity (S, MI)",HepG2 cells; [4],39.5 µM
same,"Minimal effective concentration (MEC), viability cell count (V, CC)",HepG2 cells; [4],4 µM
same,"Degree of injury score, Neutral Lipids Area",HepG2 cells; [5],0 (variation lower than 25%)
same,"Degree of injury score, Neutral Lipids C",HepG2 cells; [5],2 (variation 150-300%)
same,"Degree of injury score, Neutral Lipids MI",HepG2 cells; [5],3 (variation >300%)
same,"Degree of injury score, Nucleus Area",HepG2 cells; [5],1 (variation ± 20-40%)
same,"Degree of injury score, Nucleus CC",HepG2 cells; [5],3 (variation ± 60-100%)
same,"Degree of injury score, Nucleus MI",HepG2 cells; [5],1 (variation ± 20-40%)
same,"Degree of injury score, Phospholipids Area",HepG2 cells; [5],1 (variation 25-150%)
same,"Degree of injury score, Phospholipids C",HepG2 cells; [5],0 (variation lower than 25%)
same,"Degree of injury score, Phospholipids MI",HepG2 cells; [5],0 (variation lower than 25%)
same,Degree of injury (category),"HepG2 cells; HepG2, isomolar concentration of 100 µM ([…] for amiodarone)",Severe hepatotoxicity (severely toxic (≥15))
same,IC50/EC50 MMP MI,"HepG2 cells; HepG2, live assay, 48 h",345 µM
same,IC50/EC50 Nucleus Area,"HepG2 cells; HepG2, live assay, 48 h",29.1 µM
same,IC50/EC50 Nucleus Cell count,"HepG2 cells; HepG2, live assay, 48 h",7.2 µM
same,IC50/EC50 Nucleus MI,"HepG2 cells; HepG2, live assay, 48 h",25.0 µM
same,IC50/EC50 PMP MI,"HepG2 cells; HepG2, live assay, 48 h",147 µM
same,IC50/EC50 ROS MI,"HepG2 cells; HepG2, live assay, 48 h",4.6 µM
same,"MEC, MMP mean intensity",HepG2 cells; [6],12.5 µM
same,"MEC, ROS mean intensity",HepG2 cells; [6],12.5 µM
same,"MEC, viability cell count (V, CC)",HepG2 cells; [6],12.5 µM
same,"Degree of injury score, MMP MI",HepG2 cells; [7],1 (variation ± 20-40%)
same,"Degree of injury score, Nucleus Area",HepG2 cells; [7],1 (variation ± 20-40%)
same,"Degree of injury score, Nucleus CC",HepG2 cells; [7],3 (variation ± 60-100%)
same,"Degree of injury score, Nucleus MI",HepG2 cells; [7],2 (variation ± 40-60%)
same,"Degree of injury score, PMP MI",HepG2 cells; [7],1 (variation ± 20-40%)
same,"Degree of injury score, ROS MI",HepG2 cells; [7],1 (variation ± 20-40%)
same,Concentration below which no cytotoxic effects were displayed,"[1]; human, 48 h",12.5 µM
"C[C@H]1c2cccc(O)c2C(=O)C2=C(O)[C@]3(O)C(=O)C(C(N)=O)=C(O)[C@@H](N(C)C)[C@@H]3[C@@H](O)[C@@H]21 [Doxycycline, doxycycline]",IC50/EC50 Nucleus Cell count,"HepG2 cells; HepG2, fixed assay, 48 h",165 µM
same,IC50/EC50 Nucleus MI,"HepG2 cells; HepG2, fixed assay, 48 h",892 µM
same,IC50/EC50 Steatosis Area,"HepG2 cells; HepG2, fixed assay, 48 h",398 µM
same,IC50/EC50 Steatosis Count,"HepG2 cells; HepG2, fixed assay, 48 h",260 µM
same,IC50/EC50 MMP MI,"HepG2 cells; HepG2, live assay, 48 h",622 µM
same,IC50/EC50 Nucleus Cell count,"HepG2 cells; HepG2, live assay, 48 h",120.3 µM
same,IC50/EC50 Nucleus MI,"HepG2 cells; HepG2, live assay, 48 h",153 µM
same,IC50/EC50 ROS MI,"HepG2 cells; HepG2, live assay, 48 h",115 µM
same,"MEC, MMP mean intensity","HepG2 cells; human, 48 h",1000 µM
same,"MEC, PMP mean intensity","HepG2 cells; human, 48 h",1000 µM
same,"MEC, ROS mean intensity","HepG2 cells; human, 48 h",316 µM
same,"MEC, nuclear changes area (NC, A)","HepG2 cells; human, 48 h",1000 µM
same,"MEC, nuclear changes mean intensity (NC, MI)","HepG2 cells; human, 48 h",1000 µM
same,"MEC, steatosis droplet count (S, C)","HepG2 cells; human, 48 h",316 µM
same,"MEC, steatosis mean intensity (S, MI)","HepG2 cells; human, 48 h",1000 µM
same,"MEC, viability cell count (V, CC)","HepG2 cells; human, 48 h",316 µM
same,"Minimal effective concentration (MEC), viability cell count (V, CC)","HepG2 cells; human, 48 h",100 µM
same,SRI (steatotic risk index) Lipid,"HepG2 cells; human, 48 h",36
same,SRI (steatotic risk index) ROS,"HepG2 cells; human, 48 h",36
same,TR (toxicity risk),"HepG2 cells; human, 48 h",11.4
same,Effect on mitochondrial membrane,[1],concentration dependent depolarization of the mitochondrial membrane
same,Phospholipid parameters / accumulation of phospholipids,[1],no changes were detected
same,ROS levels,[1],unaffected
same,Concentration at which increase in lipid accumulation / lipid droplets was observed,"[1]; human, 48 h",320 µM
same,"MEC, MMP mean intensity","[1]; human, 48 h",1000 µM
same,"MEC, PMP mean intensity","[1]; human, 48 h",31.6 µM
same,"MEC, nuclear changes mean intensity (NC, MI)","[1]; human, 48 h",100 µM
same,"MEC, steatosis droplet count (S, C)","[1]; human, 48 h",316 µM
same,"MEC, steatosis mean intensity (S, MI)","[1]; human, 48 h",1000 µM
same,"MEC, viability cell count (V, CC)","[1]; human, 48 h",1000 µM
same,"Minimal effective concentration (MEC), viability cell count (V, CC)","[1]; human, 48 h",100 µM
same,SRI (steatotic risk index) Lipid,"[1]; human, 48 h",36
same,SRI (steatotic risk index) ROS,"[1]; human, 48 h",>114
same,TR (toxicity risk),"[1]; human, 48 h",3.6
same,Cmax,[2],8.8 µM
same,IC50/EC50 Nucleus Area,"[3]; hiPS-HEP, fixed assay, 48 h",96.1 µM
same,IC50/EC50 Nucleus Cell count,"[3]; hiPS-HEP, fixed assay, 48 h",107 µM
same,IC50/EC50 Nucleus MI,"[3]; hiPS-HEP, fixed assay, 48 h",47.2 µM
same,IC50/EC50 Steatosis Count,"[3]; hiPS-HEP, fixed assay, 48 h",115 µM
same,IC50/EC50 Steatosis MI,"[3]; hiPS-HEP, fixed assay, 48 h",441 µM
same,IC50/EC50 MMP MI,"[3]; hiPS-HEP, live assay, 48 h",644 µM
same,IC50/EC50 Nucleus Area,"[3]; hiPS-HEP, live assay, 48 h",204.3 µM
same,IC50/EC50 Nucleus Cell count,"[3]; hiPS-HEP, live assay, 48 h",69.4 µM
same,IC50/EC50 Nucleus MI,"[3]; hiPS-HEP, live assay, 48 h",120 µM
same,IC50/EC50 PMP MI,"[3]; hiPS-HEP, live assay, 48 h",26.9 µM
same,IC50/EC50 ROS MI,"[3]; hiPS-HEP, live assay, 48 h",10.5 µM
same,Concentration from which effects on plasma membrane permeability (PMP) start,[3]; hiPSC derived hepatocytes,32 µM
same,Cell count reduction,"[3]; hiPSC derived hepatocytes, at 100 μM",50%
